Source: publication PMC4664883, “Selective targeting of nuclear receptor FXR by avermectin analogues with therapeutic effects on nonalcoholic fatty liver disease” (Scientific Reports, 2015)
Values belong to the compound of their own block, whether it stands above or below them.

How the values were obtained:
mice = test system: mice; design: method as in PMID 19072826; details: cited from earlier work
[1] = test system: other nuclear receptors tested; assay: Receptor-specific transactivation reporter assay in COS-7 cells; assay type: cell-based, human; details: 10 μM avermectins, Supplementary Fig. S3
Procedure: 30 Receptor-specific ligand
rifampicin; CAR, 5 μM CITCO. […] Luciferase activities
independent experiments. *p<0.001 versus DMSO control.

KK-Ay mice = assay: High-fat diet fed KK-Ay mice treated 14 days (liver histology, metabolic parameters, GTT, ITT); assay type: in vivo; details: for insulin sensitivity (ITT) / glucose tolerance (GTT): KK-Ay mice treated 10 days; for insulin sensitivity (ITT): 1 U/kg insulin i.p.; for glucose tolerance (GTT): 1 g/kg glucose i.p.; for serum cholesterol level / serum triglyceride level / body weight / hepatic lipid / steatosis by H&E staining of liver sections / lipid accumulation by oil red O staining of liver sections / liver morphology (colour): KK-Ay mice; for serum cholesterol level / serum triglyceride level / body weight: 1.3 mg/kg i.p. 14 days; for body weight: versus vehicle, eprinomectin and moxidectin groups; for hepatic lipid / steatosis by H&E staining of liver sections / lipid accumulation by oil red O staining of liver sections / liver morphology (colour): high-fat diet, i.p. once daily 14 days, avermectin analogues 1.3 mg/kg, GW4064 30 mg/kg
Procedure: To further confirm the lipid accumulation, we performed oil red O staining of the frozen liver sections (Fig. 2c).
(§1) 10 weeks age KK-Ay mice and C57BL/6J, homozygous FXR deficient (FXR^–/–) mice were maintained under environmentally controlled conditions with free access to standard chow diet and water as described previously. Animal experiments were conducted in the barrier facility of the Laboratory Animal Center, Xiamen University, approved by the Institutional Animal Use and Care Committee of Xiamen University, China, and the methods were carried out in accordance with the approved guidelines. Mice were fed with high fat diet containing 60% fat, 20% protein and 20% carbohydrate (Research Diets, D12492, New Brunswick, USA), and the food intake were measured every second day. […] After 6 h fasting, mice were weighed and sacrificed. Livers were weighed and taken photos, and part of each liver was fixed in 4% paraformaldehyde. Liver histology characterization was analyzed by haematoxylin and eosin (H&E) staining with paraffin-embedded sections by standard procedures. Other tissues were collected and frozen in liquid nitrogen for use, and serums were collected to measure metabolite parameters.
(§2) Fresh liver tissues were embedded in optimum cutting temperature compound (OCT) and cryosectioned. The sections were fixed in 4% paraformaldehyde in PBS, and were stained with 0.3% oil red O according to standard procedures.
Mice treated with compounds for 10 days were fasted for 6 h with free access to water. For the glucose tolerance test (GTT), 1 g/kg of glucose was i.p. injected and blood glucose was measured with the Accu-Check Performa (Roche Applied Science, Mannheim, Germany) at 0, 30, 60, 90, 120,150 and 180 min. For the insulin tolerance test (ITT), 1 U/kg of recombinant human insulin (Novolin 30R; Novo Nordisk, Bagsvaerd, Denmark) was i.p. injected, and blood glucose was measured at 0, 30, 60, 120 and 150 min after insulin injection.
(§3) Serum glucose was analyzed using glucose oxidase method (Applygen, Beijing, China). Serum cholesterol and triglyceride were analyzed using Cholesterol Assay Kit and Triglyceride Assay Kit (Bioassay Systems, USA), respectively. Liver triglyceride was analyzed using Tissue triglyceride assay kit (Applygen, Beijing, China).

Wild type C57BL/6J mice = assay: High-fat diet fed wild type mice treated with compounds; assay type: in vivo; details: for serum cholesterol levels / serum glucose levels: in a FXR dependent manner (WT versus KO); for amount of lipid in liver sections (oil red O): wild type mice, high-fat diet, versus vehicle
Excerpt: To reaffirm that the function of avermectin analogues on lipid metabolism is by directly targeting FXR signaling, we employed wild type mice and FXR gene knockout mice, both fed with high-fat diet, to study the FXR dependency of physiological effects of these avermectin analogues. […] The expression pattern of FXR target genes SHP, BSEP, solute carrier family 51 beta subunit (OSTβ) and AKR1B7 in primary hepatocytes from wild type mice and FXR gene knockout mice further confirmed the FXR-dependent manner of avermectin analogues (Supplementary Fig. S5).
as §1, §2, §3

[2] = target: T1, FXR ligand binding domain (LBD) (Homo sapiens, UniProt Q96RI1); assay: AlphaScreen cofactor binding assay; assay type: biochemical; details: for coactivators recruitment by FXR (biotin-SRC1–2, biotin-SRC2–3): 0.5 μM compound, Fig. 4a
T1 construct: made in house; host or cells: E. coli BL21 (DE3)
T1 sequence (Q96RI1 262-486 limits assumed): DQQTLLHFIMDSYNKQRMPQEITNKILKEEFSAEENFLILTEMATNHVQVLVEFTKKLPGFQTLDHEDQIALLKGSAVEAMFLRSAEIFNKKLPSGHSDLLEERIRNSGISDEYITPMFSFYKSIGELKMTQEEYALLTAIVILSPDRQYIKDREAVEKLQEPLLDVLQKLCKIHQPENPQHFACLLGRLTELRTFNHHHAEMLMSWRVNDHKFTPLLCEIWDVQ
Procedure: The binding of the cofactor peptide motifs to FXR LBD in response to ligands was determined by AlphaScreen assays using a hexahistidine detection kit from Perkins-Elmer (USA) as described before. The FXR LBD protein was purified as described previously.

FXR A291W mutation = assay: Reporter assay with mutated FXR; assay type: cell-based; details: 1 μM, Fig. 8e
FXR H447F mutation = assay: Reporter assay with mutated FXR; assay type: cell-based; details: 1 μM, Fig. 8e
Excerpt: For H447F mutation, the corresponding residue of histidine with a side chain of imidazole group was replaced by the nonpolar phenylalanine with a side chain of benzene ring (Fig. 8c).

[3] = test system: genes related with lipid metabolism / FXR target genes; assay: Real-time PCR of hepatic mRNA levels in treated KK-Ay mice; assay type: in vivo; details: KK-Ay mice liver
Procedure: as §1
Total RNA was isolated using Tissue RNA kit (Omega Bio-Tek, GA). The first strand cDNA were obtained by TAKARA reverse transcription kit. Real-time quantitative PCR were performed on a CFX96™ Real-Time PCR Detection System (Bio-Rad) using SYBR Premix Ex TaqTM (TAKARA). Relative mRNA expression levels were normalized to actin levels.

FXR LBD = test system: T2, FXR LBD; assay: Peptide profiling / peptide competition AlphaScreen assay; assay type: biochemical; details: 16 unlabelled peptides (20 μM) competing with biotin-SRC2-3; 1 μM compound
T2 construct: made in house; host or cells: E. coli BL21 (DE3)
Excerpt: To determine whether there is a conformational difference of FXR with various avermectin analogues, we performed peptide-profiling experiments using a panel of 16 unlabelled peptides selected from both coactivators and corepressors to compete off the binding of the third LXXLL motif of SRC2 (SRC2–3) to FXR in response to the binding of avermectin analogues (Fig. 5).
Values are the means ± SEM of three independent experiments.

FXR = target: T3, FXR (Homo sapiens, UniProt Q96RI1); assay: Cell-based reporter assay, transient transfection of COS-7 cells (EcRE reporter); details: for transcriptional activity of FXR: 1 μM compounds, Fig. 4b, EcRE reporter
T3 sequence (Q96RI1 1-472 isoform Q96RI1-2): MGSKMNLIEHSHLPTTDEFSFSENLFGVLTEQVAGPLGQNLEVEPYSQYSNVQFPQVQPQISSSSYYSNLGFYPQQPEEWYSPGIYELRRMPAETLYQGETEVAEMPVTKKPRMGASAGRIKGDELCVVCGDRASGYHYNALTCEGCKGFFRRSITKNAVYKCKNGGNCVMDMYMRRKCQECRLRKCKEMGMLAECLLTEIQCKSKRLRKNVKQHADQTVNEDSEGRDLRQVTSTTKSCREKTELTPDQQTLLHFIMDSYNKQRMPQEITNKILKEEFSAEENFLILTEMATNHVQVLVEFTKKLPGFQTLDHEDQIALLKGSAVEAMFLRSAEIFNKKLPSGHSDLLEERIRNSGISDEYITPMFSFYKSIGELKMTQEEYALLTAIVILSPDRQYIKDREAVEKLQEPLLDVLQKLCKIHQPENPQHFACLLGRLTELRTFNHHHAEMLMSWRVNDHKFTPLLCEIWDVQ
Excerpt: Since ligands can regulate the transcriptional activity of nuclear receptors by binding into their ligand binding pocket, we performed cell-based reporter assay to validate the results from AlphaScreen.
COS-7 cells were cotransfected with plasmids enco ding full-length nuclear receptors and their cognate response reporters as follows: human FXR with EcRE- Luc, human LXR(α and β) with LXRE- luc; human VDR with VDRE-luc; Human RXRα with RXRE- luc; human PPARs (α, δ, and γ) with PPRE-Luc; human GR o r PR with the MMTV-Luc; hum an RARα or RARβ with βRE- Luc; human PXR and CAR with PBRE-luc. 5 h after transfection,
were normalized to renilla activity co-transfected as an internal control.

diabetic mice = details: cited from earlier work

Structure (SMILES): C[C@H](CCC(=O)O)[C@H]1CC[C@H]2[C@@H]3[C@H](O)C[C@@H]4C[C@H](O)CC[C@]4(C)[C@H]3CC[C@]12C [CDCA, chenodeoxycholic acid]
liver effect of CDCA-rich diet (mice): induce liver hypertrophy

Structure (SMILES): CCC(C)C1OC2(C=CC1C)CC1CC(CC=C(C)C(OC3CC(OC)C(OC4CC(OC)C(O)C(C)O4)C(C)O3)C(C)C=CC=C3COC4C(O)C(C)=CC(C(=O)O1)C34O)O2 (stereo not drawn) [abamectin]
impact on other nuclear receptors tested (transactivation) [1]: no substantial impact | insulin sensitivity (ITT) (KK-Ay mice): significantly improved | glucose tolerance (GTT) (KK-Ay mice): significantly improved | serum cholesterol level (KK-Ay mice): significantly decreased | serum triglyceride level (KK-Ay mice): significantly decreased | body weight (KK-Ay mice): significantly lower | hepatic lipid / steatosis by H&E staining of liver sections (KK-Ay mice): nearly completely reverse the liver from hepatic steatosis | lipid accumulation by oil red O staining of liver sections (KK-Ay mice): dramatically reduced the lipid accumulation | liver morphology (colour) (KK-Ay mice): much more fresh red tissue | serum cholesterol levels (Wild type C57BL/6J mice): lowered | serum glucose levels (Wild type C57BL/6J mice): lowered | amount of lipid in liver sections (oil red O) (Wild type C57BL/6J mice): significantly reduced the amount of lipid

coactivators recruitment by FXR (biotin-SRC1–2, biotin-SRC2–3) [2]: strongly promoted | recruitment of nuclear receptor corepressor (NCoR)-2 by FXR ([2]; Fig. 4e): induced the recruitment | hepatic level of CYP8b1 [3]: decreased | transcriptional activity of FXR (FXR): selectively activated | ligand character for FXR (FXR; concluded from AlphaScreen and reporter assays): partial agonists
Structure (SMILES): CO[C@H]1C[C@H](O[C@H]2[C@H](C)O[C@@H](O[C@@H]3/C(C)=C/C[C@@H]4C[C@@H](C[C@]5(C=C[C@H](C)[C@@H](C6CCCCC6)O5)O4)OC(=O)[C@@H]4C=C(C)[C@@H](O)[C@H]5OC/C(=C\C=C\[C@@H]3C)[C@]54O)C[C@@H]2OC)O[C@@H](C)[C@@H]1O [doramectin]
impact on other nuclear receptors tested (transactivation) [1]: no substantial impact | transcriptional activity of A291W mutated FXR (FXR A291W mutation): abolished the transcriptional activity | transcriptional activity of H447F mutated FXR (FXR H447F mutation): increased the FXR activity | insulin sensitivity (ITT) (KK-Ay mice): significantly improved | glucose tolerance (GTT) (KK-Ay mice): significantly improved | serum cholesterol level (KK-Ay mice): significantly decreased | serum triglyceride level (KK-Ay mice): significantly decreased | body weight (KK-Ay mice): significantly lower | hepatic lipid / steatosis by H&E staining of liver sections (KK-Ay mice): nearly completely reverse the liver from hepatic steatosis | lipid accumulation by oil red O staining of liver sections (KK-Ay mice): dramatically reduced the lipid accumulation | liver morphology (colour) (KK-Ay mice): much more fresh red tissue | hepatic expression of BSEP [3]: induced | hepatic expression of SHP [3]: induced | hepatic mRNA level of AKR1B7 [3]: dramatically induced | hepatic mRNA level of SCD1 [3]: substantially decreased | hepatic mRNA level of SREBP-1c [3]: substantially decreased | serum cholesterol levels (Wild type C57BL/6J mice): lowered | serum glucose levels (Wild type C57BL/6J mice): lowered | amount of lipid in liver sections (oil red O) (Wild type C57BL/6J mice): significantly reduced the amount of lipid | peptide profile of ligand-bound FXR (FXR LBD): identical peptide profiles as the ivermectin

Structure (SMILES): CCC(C)C1OC2(CCC1C)CC1CC(CC=C(C)C(OC3CC(OC)C(OC4CC(OC)C(O)C(C)O4)C(C)O3)C(C)C=CC=C3COC4C(O)C(C)=CC(C(=O)O1)C34O)O2 (stereo not drawn) [ivermectin]
coactivators recruitment by FXR (biotin-SRC1–2, biotin-SRC2–3) [2]: strongly promoted | transcriptional activity of A291W mutated FXR (FXR A291W mutation): abolished the transcriptional activity | serum cholesterol level (KK-Ay mice): significantly decreased | serum triglyceride level (KK-Ay mice): significantly decreased | body weight (KK-Ay mice): significantly lower | hepatic lipid / steatosis by H&E staining of liver sections (KK-Ay mice): nearly completely reverse the liver from hepatic steatosis | lipid accumulation by oil red O staining of liver sections (KK-Ay mice): dramatically reduced the lipid accumulation | liver morphology (colour) (KK-Ay mice): much more fresh red tissue | hepatic expression of BSEP [3]: induced | hepatic expression of SHP [3]: induced | hepatic level of CYP8b1 [3]: decreased | hepatic mRNA level of AKR1B7 [3]: dramatically induced | hepatic mRNA level of SCD1 [3]: substantially decreased | hepatic mRNA level of SREBP-1c [3]: substantially decreased | amount of lipid in liver sections (oil red O) (Wild type C57BL/6J mice): significantly reduced the amount of lipid | serum cholesterol level (diabetic mice): decreased | serum glucose level (diabetic mice): decreased

coactivators recruitment by FXR (biotin-SRC1–2, biotin-SRC2–3) [2]: failed to induce | hepatic level of CYP8b1 [3]: did not display these regulations | transcriptional activity of FXR (FXR): failed to activate
Structure (SMILES): CO/N=C1\C[C@]2(C[C@@H]3C[C@@H](C/C=C(\C)C[C@@H](C)/C=C/C=C4\CO[C@@H]5[C@H](O)C(C)=C[C@@H](C(=O)O3)[C@]45O)O2)O[C@H](/C(C)=C/C(C)C)[C@H]1C [moxidectin]
serum cholesterol level (KK-Ay mice): did not | serum triglyceride level (KK-Ay mice): did not | liver morphology (colour) (KK-Ay mice): grease white | hepatic expression of BSEP [3]: did not display these regulations | hepatic expression of SHP [3]: did not display these regulations | hepatic mRNA level of AKR1B7 [3]: did not display these regulations | hepatic mRNA level of SCD1 [3]: did not display these regulations | hepatic mRNA level of SREBP-1c [3]: did not display these regulations
